Structures are written as SMILES.

What all share (format): biochemical
One assay concerns the target T1, JAK2 (Homo sapiens, UniProt O60674).
T1 construct: purchased Invitrogen Corporation, Madison, Wis; PV4210
Description: JAK enzymatic assay (peptide mobility shift), JAK2. As to conditions: recombinant JAK2 2 nM, ATP 4 μM, 1 μM JAKtide peptide, 150 minutes. From the text:
(§1) Recombinant JAK1 (Catalog Number PV4775), JAK2 (Catalog Number PV4210) and JAK3 (Catalog Number PV3855) were purchased from (Invitrogen Corporation, Madison, Wis.). Tyk2 (His-Tyk2 (888-1182, C936S, C1142S)) used in this study was expressed and purified at Pfizer Laboratories. Adenosine 5′-triphosphate (ATP) was obtained from (Sigma Chemical Company, St. Louis, Mo.). The JAKtide peptide (peptide sequence, FITC-[…]) used for the JAK2 and JAK3 assays and the IRS-1 peptide (peptide sequence, 5-FAM-[…]) used for the JAK1 and Tyk2 assays were purchased from (American Peptide Company, Sunnyvale, Calif.). Coating Reagent 3 was purchased from (Caliper Life Sciences, Hopkinton, Mass.).
(§2) A peptide mobility shift assay was used to quantify the phosphorylation of the JAKtide (JAK2 and JAK3) or the IRS-1 peptide ([…] and Tyk2). Reactions were carried out in a 384-well plate (Matrical MP-101) in a 10 μL total volume. Reaction mixtures contained 20 mM HEPES, pH 7.4, 10 mM magnesium chloride, 0.01% bovine serum albumin (BSA), 0.0005% Tween-20, ATP (4 μM for JAK2 and JAK3, 40 μM for JAK1 and 7 μM for Tyk2)), 2% DMSO and 1 μM peptide substrate (JAKtide for JAK2 and JAK3 and IRS-1 peptide for JAK1 and Tyk2). Compounds were diluted serially in 100% dimethyl sulfoxide and tested in an 11 point dose response in duplicate or quadruplicate (200 nl of compound/DMSO was added per 10 μL reaction). The reactions were initiated by the addition of enzyme to the final concentration of 2 nM JAK2, 1 nM JAK3, 12 nM Tyk2 or 20 nM JAK1. The assay was run for 240 minutes for JAK1, 150 minutes for JAK2, 90 minutes for JAK3 and 70 minutes for Tyk2. The assays were stopped at the specified times with 20 uL of 140 mM HEPES, 22.5 mM EDTA and 0.15% Coating Reagent 3. The plates were placed on a LabChip 3000 (LC3000) instrument from (Caliper Life Sciences) to measure the formation of phosphorylated peptide. Data was analyzed using Hits Well Analyzer Software from (Caliper Life Sciences) to obtain the amount of product formed.
(§3) Data was then imported into an internal application where each data point is expressed as % inhibition based on uninhibited and no enzyme controls. Dose-response data is then fit using a 4 parameter logistic equation (Equation 1) to determine an IC50.
(§4) Where max is the fitted uninhibited value, min is the fitted complete inhibition value, and s is the slope factor.

Another assay addresses T2, JAK3 (Homo sapiens, UniProt P52333).
T2 construct: purchased Invitrogen Corporation, Madison, Wis; PV3855
T2 sequence (P52333 1-1124): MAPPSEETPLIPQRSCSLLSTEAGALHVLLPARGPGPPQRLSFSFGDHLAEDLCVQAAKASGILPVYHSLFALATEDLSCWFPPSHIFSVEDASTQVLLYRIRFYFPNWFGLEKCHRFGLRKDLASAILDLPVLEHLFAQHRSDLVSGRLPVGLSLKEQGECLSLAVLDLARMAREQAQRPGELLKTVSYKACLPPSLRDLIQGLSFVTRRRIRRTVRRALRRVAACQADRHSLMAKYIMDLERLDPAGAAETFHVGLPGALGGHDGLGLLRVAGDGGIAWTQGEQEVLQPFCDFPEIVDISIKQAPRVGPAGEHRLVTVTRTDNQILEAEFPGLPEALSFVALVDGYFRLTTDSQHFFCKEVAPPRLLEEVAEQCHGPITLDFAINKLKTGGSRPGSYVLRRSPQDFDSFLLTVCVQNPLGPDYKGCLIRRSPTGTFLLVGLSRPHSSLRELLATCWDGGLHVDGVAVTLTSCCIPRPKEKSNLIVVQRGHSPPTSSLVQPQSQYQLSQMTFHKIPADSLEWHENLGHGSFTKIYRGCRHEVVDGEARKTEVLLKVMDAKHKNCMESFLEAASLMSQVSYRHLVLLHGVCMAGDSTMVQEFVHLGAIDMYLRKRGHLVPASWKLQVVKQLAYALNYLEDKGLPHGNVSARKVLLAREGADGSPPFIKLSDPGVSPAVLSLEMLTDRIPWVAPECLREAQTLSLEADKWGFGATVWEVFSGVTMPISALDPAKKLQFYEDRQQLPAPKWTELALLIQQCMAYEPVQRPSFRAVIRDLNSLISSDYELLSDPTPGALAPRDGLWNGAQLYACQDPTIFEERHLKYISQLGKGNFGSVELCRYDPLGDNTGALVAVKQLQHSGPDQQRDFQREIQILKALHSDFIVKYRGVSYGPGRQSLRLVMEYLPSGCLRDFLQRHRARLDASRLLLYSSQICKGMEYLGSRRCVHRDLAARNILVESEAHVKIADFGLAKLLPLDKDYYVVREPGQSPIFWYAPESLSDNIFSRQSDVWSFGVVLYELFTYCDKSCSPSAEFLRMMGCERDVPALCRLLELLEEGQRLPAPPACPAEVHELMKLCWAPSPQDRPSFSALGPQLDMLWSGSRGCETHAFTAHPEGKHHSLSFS
Kind of assay: JAK enzymatic assay (peptide mobility shift), JAK3. To be noted: recombinant JAK3 1 nM, ATP 4 μM, 1 μM JAKtide peptide, 90 minutes.
Description: Recombinant JAK1 (Catalog Number PV4775), JAK2 (Catalog Number PV4210) and JAK3 (Catalog Number PV3855) were purchased from (Invitrogen Corporation, Madison, Wis.). Tyk2 (His-Tyk2 (888-1182, C936S, C1142S)) used in this study was expressed and purified at Pfizer Laboratories. Adenosine 5′-triphosphate (ATP) was obtained from (Sigma Chemical Company, St. Louis, Mo.). […] Coating Reagent 3 was purchased from (Caliper Life Sciences, Hopkinton, Mass.).
as §2, §3, §4

The target in another assay is T3, JAK1 (Homo sapiens, UniProt P23458).
T3 construct: purchased Invitrogen Corporation, Madison, Wis; PV4775
T3 sequence (P23458 whole entry): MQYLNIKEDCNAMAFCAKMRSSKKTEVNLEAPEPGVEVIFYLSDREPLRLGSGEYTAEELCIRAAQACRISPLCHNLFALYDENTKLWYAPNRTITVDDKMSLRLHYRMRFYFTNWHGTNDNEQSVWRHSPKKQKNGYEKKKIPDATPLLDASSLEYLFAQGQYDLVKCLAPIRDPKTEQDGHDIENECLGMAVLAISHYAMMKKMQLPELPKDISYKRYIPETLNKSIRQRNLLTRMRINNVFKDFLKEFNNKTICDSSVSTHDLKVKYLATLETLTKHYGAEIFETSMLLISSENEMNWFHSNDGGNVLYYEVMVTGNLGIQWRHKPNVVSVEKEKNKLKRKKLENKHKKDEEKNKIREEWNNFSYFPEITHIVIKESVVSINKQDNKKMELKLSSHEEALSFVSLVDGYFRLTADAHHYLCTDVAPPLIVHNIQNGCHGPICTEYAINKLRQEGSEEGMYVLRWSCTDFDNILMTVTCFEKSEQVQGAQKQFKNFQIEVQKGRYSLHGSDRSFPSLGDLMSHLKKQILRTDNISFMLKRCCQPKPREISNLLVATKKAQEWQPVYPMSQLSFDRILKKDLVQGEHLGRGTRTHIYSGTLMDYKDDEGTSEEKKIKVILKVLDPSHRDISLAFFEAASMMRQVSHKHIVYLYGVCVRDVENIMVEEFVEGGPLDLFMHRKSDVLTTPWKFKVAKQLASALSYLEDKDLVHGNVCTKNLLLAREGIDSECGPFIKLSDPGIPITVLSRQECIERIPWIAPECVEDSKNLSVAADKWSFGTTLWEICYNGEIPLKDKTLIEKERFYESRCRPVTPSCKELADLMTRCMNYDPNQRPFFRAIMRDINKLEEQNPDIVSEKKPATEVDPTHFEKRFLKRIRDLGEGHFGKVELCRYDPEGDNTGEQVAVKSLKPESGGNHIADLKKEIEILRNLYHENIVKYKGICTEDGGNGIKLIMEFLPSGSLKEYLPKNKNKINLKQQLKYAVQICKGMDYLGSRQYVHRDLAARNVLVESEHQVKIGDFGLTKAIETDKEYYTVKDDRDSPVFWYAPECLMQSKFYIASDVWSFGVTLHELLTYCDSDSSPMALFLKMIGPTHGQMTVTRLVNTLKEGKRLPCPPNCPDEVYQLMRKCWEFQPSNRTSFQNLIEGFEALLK
Description: JAK enzymatic assay (peptide mobility shift), JAK1. As to conditions: recombinant JAK1 20 nM, ATP 40 μM, 1 μM IRS-1 peptide, 240 minutes.
Description: as §1, §2, §3, §4

T1 sequence (O60674 whole entry): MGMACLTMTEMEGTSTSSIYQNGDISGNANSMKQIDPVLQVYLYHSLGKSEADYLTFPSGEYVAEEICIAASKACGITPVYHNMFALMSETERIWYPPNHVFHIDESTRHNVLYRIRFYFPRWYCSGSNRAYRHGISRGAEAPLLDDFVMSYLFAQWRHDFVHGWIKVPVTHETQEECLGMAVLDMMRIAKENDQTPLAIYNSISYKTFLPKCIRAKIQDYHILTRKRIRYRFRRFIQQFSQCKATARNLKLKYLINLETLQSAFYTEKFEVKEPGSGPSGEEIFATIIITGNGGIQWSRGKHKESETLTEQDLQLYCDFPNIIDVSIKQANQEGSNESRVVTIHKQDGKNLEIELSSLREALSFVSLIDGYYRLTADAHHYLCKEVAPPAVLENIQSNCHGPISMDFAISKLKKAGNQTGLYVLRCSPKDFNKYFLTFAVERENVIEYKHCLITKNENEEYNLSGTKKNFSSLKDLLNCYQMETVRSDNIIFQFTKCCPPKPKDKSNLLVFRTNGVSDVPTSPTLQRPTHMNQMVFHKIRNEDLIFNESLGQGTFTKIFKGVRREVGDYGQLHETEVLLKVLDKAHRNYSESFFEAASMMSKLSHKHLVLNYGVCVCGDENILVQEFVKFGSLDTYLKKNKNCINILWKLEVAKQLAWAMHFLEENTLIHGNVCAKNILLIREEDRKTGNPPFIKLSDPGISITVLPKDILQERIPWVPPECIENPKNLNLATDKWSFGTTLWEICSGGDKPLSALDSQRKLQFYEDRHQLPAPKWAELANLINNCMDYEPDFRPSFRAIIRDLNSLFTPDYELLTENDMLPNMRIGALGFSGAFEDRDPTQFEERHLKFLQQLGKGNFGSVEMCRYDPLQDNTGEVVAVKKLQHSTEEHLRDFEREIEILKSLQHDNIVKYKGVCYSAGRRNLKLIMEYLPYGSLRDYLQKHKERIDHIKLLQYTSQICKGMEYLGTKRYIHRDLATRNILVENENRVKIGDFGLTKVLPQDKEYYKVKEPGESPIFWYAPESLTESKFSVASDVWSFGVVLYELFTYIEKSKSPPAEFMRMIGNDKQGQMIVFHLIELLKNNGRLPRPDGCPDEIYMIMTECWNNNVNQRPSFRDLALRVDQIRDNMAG

As to `CN(c1ncnc2[nH]ccc12)[C@H]1CC[C@H](CS(=O)(=O)Nc2ccc3[nH]ncc3c2)CC1` [Example 26, N-1H-indazol-5-yl-1-{trans-4-[methyl(7H-pyrrolo[2,3-d]pyrimidin-4-yl)amino]-cyclohexyl}-methanesulfonamide], the values for the IC50 at JAK2, on JAK3 and at JAK1 were 39.4 nM, 175 nM and 19 nM, respectively.
`CN(c1ncnc2[nH]ccc12)[C@H]1CC[C@H](CS(=O)(=O)NCCc2cccc(Cl)c2)CC1` [Example 36, N-[2-(3-chlorophenyl)ethyl]-1-{trans-4-[methyl(7H-pyrrolo[2,3-d]pyrimidin-4-yl)amino]cyclohexyl}-methanesulfonamide]: the half-maximal inhibitory concentration (IC50) turned out to be 41.4 nM at JAK2, 294 nM on JAK3 and 7.7 nM at JAK1.
Consider `CN(c1ncnc2[nH]ccc12)[C@H]1CC[C@H](CS(=O)(=O)NCC(O)c2ccc(F)c(F)c2)CC1` (stereo partly drawn) [Example 39, N-[2-(3,4-difluorophenyl)-2-hydroxyethyl]-1-{trans-4-[methyl(7H-pyrrolo[2,3-d]pyrimidin-4-yl)amino]-cyclohexyl}-methanesulfonamide], for which the values for the IC50 at JAK2, at JAK3 and at JAK1 were 30.6 nM, 240 nM and 9.79 nM, respectively.
The like results for `CN(Cc1cccc(N)n1)S(=O)(=O)C[C@H]1CC[C@H](N(C)c2ncnc3[nH]ccc23)CC1` [Example 29, N-[(6-aminopyridin-2-yl)methyl]-N-methyl-1-{trans-4-[methyl(7H-pyrrolo[2,3-d]pyrimidin-4-yl)amino]cyclohexyl}-methanesulfonamide] were, in that order, 51 nM, 514 nM and 16.7 nM.
Take `CN(c1ncnc2[nH]ccc12)[C@H]1CC[C@H](CS(=O)(=O)N[C@H]2CC[C@H](C(C)(C)O)CC2)CC1` [Example 37, N-[trans-4-(1-hydroxy-1-methylethyl)cyclohexyl]-1-{trans-4-[methyl(7H-pyrrolo[2,3-d]pyrimidin-4-yl)amino]cyclohexyl}-methanesulfonamide]: the 50% inhibitory concentration (IC50) at JAK2 came out at 33.3 nM; on JAK3, 212 nM; at JAK1 it was 8.73 nM.
For `COc1ccc(CNS(=O)(=O)C[C@H]2CC[C@H](N(C)c3ncnc4[nH]ccc34)CC2)cc1` [Example 18, N-(4-methoxybenzyl)-1-{trans-4-[methyl(7H-pyrrolo[2,3-d]-pyrimidin-4-yl)amino]-cyclo-hexyl}methanesulfonamide], in that order: 27.5 nM, 175 nM and 21.3 nM.
Regarding `Cc1ccc(NS(=O)(=O)C[C@H]2CC[C@H](N(C)c3ncnc4[nH]ccc34)CC2)cn1` [Example 30, N-(6-methylpyridin-3-yl)-1-{trans-4-[methyl(7H-pyrrolo[2,3-d]pyrimidin-4-yl)amino]cyclohexyl}-methanesulfonamide], the concentration for half-maximal inhibition (IC50) amounted to 47.6 nM at JAK2, 221 nM at JAK3 and 16.5 nM on JAK1.
`CN(c1ncnc2[nH]ccc12)[C@H]1CC[C@H](CS(=O)(=O)Nc2ccc3c(c2)OCCCO3)CC1` [Example 27, N-(3,4-dihydro-2H-1,5-benzodioxepin-7-yl)-1-{trans-4-[methyl(7H-pyrrolo[2,3-d]-pyrimidin-4-yl)amino]-cyclo-hexyl}methanesulfonamide]: the values for the IC50 on JAK2, at JAK3 and on JAK1 were 7.47 nM, 54.3 nM and 2.19 nM, respectively.
With `CN(Cc1cccnc1)S(=O)(=O)C[C@H]1CC[C@H](N(C)c2ncnc3[nH]ccc23)CC1` [Example 35, N-methyl-1-{trans-4-[methyl(7H-pyrrolo[2,3-d]-pyrimidin-4-yl)amino]-cyclohexyl}-N-(pyridin-3-ylmethyl)-methanesulfonamide], the half-inhibitory concentration (IC50) on JAK2 was found to be 76.1 nM; on JAK3, 622 nM; at JAK1, 6.85 nM.

The term IC50 denotes the concentration that gives 50% inhibition.

The record behind these values is patent US8372854B2, “Pyrrolo[2,3-D]pyrimidine compounds” (Pfizer Inc., priority 2009, dated 2013).
